The values that follow come from patent publication US10899750B2, “Methods and compositions of small molecule modulators of hepatocyte growth factor (scatter factor) activity” (ANGION BIOMEDICA CORP., priority 2008, dated 2021).

For one test, the system named is HUVECs. As to the kind of experiment: Nitric oxide production in endothelial cells (DAF2-DA fluorescence). In kind it is cell-based, human. To be noted: 24 hours incubation. The protocol:
c. HGF and compounds of the invention stimulate nitric oxide production in endothelial cells. HUVECs are incubated with either vehicle, HGF/SF, instant compounds, or SNAP for 24 hours, loaded with the nitric oxide-sensitive fluorescence indicator DAF2-DA and imaged under a laser scanning confocal microscope.

In test [1] the test system is LX2 cells (an immortalized human hepatic stellate cell line). As to the kind of experiment: Antifibrotic activity in hepatic stellate cells. In kind it is cell-based. To be noted: serum starved (activated) LX2 cells. An excerpt: a. Antifibrotic Activity in Hepatic Stellate Cells.
Test [2] relates to NIH-3T3 cells transfected with the gene for the c-met receptor. As to the kind of experiment: Protection from apoptosis in NIH-3T3 cells transfected with c-met receptor (MTT assay). In kind it is cell-based. An excerpt:
b. Protection from apoptosis in NIH-3T3 cells transfected with c-met receptor.
Background: Formazan colour is commonly taken as a measure of viable cells.

The subject of the next test is MDCK cells. As to the kind of experiment: Anti-apoptotic activity in cultured cell lines (adriamycin-induced apoptosis). In kind it is cell-based. An excerpt:
a. HGF/SF and instant compounds have significant anti-apoptotic activity in cultured cell lines.

With `CC(=O)N[C@@H](C(=O)O)C(C)(C)SN=O` (racemic) [SNAP, reference compound], the “Nitric oxide production (DAF2-DA fluorescence)” value in the test on HUVECs is “significant increase in fluorescence”.
“HGF/SF: pleiotropic growth factor; heparin-binding heterodimeric protein composed of a 62 kDa α chain and a 34 kDa β chain”: the “Collagen I mRNA expression” value in test [1] is “decrease in collagen I mRNA expression”. Also, the “Protection from adriamycin-induced apoptosis (MTT assay)” value in test [2] is listed as “protect the cells from adriamycin-induced apoptosis”. Further, the Adriamycin-induced apoptosis result in the test on MDCK cells (MDCK cells) was “significantly block adriamycin-induced apoptosis”. Besides, the Cell viability entry with MDCK cells (pretreatment, HUVEC and MDCK cell lines) is reported as “significantly improves the cell viability”. The “Nitric oxide production (DAF2-DA fluorescence)” value with HUVECs is “significant increase in fluorescence”.
